# What was measured:
# [1] = Zinc level in blood after intramuscular injection of zinc acetate; details: pigs, intramuscular 30 mg/kg
# [2] = Zinc level in blood after intra-testicular injection of zinc acetate; details: pigs; for Zinc Concentration in blood: intra-testicular 0.5 ml (74 mg/ml) each testis
structure (smiles),measurement,setting,value
CC(=O)[O-].CC(=O)[O-].[Zn+2] [zinc acetate],Zinc Concentration in blood,[1]; 0 Min (physiological level),45.3 μ mol/L
same,Zinc Concentration in blood,[1]; 30 min,194.08 μ mol/L
same,Zinc Concentration in blood,[1]; 1 hr.,76.17 μ mol/L
same,Zinc Concentration in blood,[1]; 2 hr.,67.4 μ mol/L
same,Zinc Concentration in blood,[1]; 3 hr.,65.22 μ mol/L
same,Zinc Concentration in blood,[1]; 4 hr.,62.8 μ mol/L
same,Zinc Concentration in blood,[1]; 6 hr.,61.6 μ mol/L
same,Zinc Concentration in blood,[1]; 8 hr.,60.8 μ mol/L
same,Zinc Concentration in blood,[1]; 12 hr.,54.3 μ mol/L
same,Zinc Concentration in blood,[1]; 16 hr.,48.7 μ mol/L
same,Zinc Concentration in blood,[1]; 24 hr.,47.3 μ mol/L
same,Zinc Concentration in blood,[1]; 36 hr.,44.5 μ mol/L
same,Zinc Concentration in blood,[1]; 48 hr.,44.2 μ mol/L
same,mean residence time,[2]; intra-testicular,~60 h
same,time of second absorption phase after injection,[2]; intra-testicular,24 h
same,Zinc Concentration in blood,[2]; 0 Min (taken as zero),0 μ mol/L
same,Zinc Concentration in blood,[2]; 30 Min,8.44 μ mol/L
same,Zinc Concentration in blood,[2]; 1 hr.,7.49 μ mol/L
same,Zinc Concentration in blood,[2]; 2 hr.,5.65 μ mol/L
same,Zinc Concentration in blood,[2]; 3 hr.,5.27 μ mol/L
same,Zinc Concentration in blood,[2]; 4 hr.,4.96 μ mol/L
same,Zinc Concentration in blood,[2]; 6 hr.,4.06 μ mol/L
same,Zinc Concentration in blood,[2]; 8 hr.,4.43 μ mol/L
same,Zinc Concentration in blood,[2]; 12 hr.,3.87 μ mol/L
same,Zinc Concentration in blood,[2]; 24 hr.,4.43 μ mol/L
same,Zinc Concentration in blood,[2]; 48 hr.,3.11 μ mol/L
same,Zinc Concentration in blood,[2]; 72 hr.,−0.36 μ mol/L
same,Zinc Concentration in blood,[2]; 96 hr.,−0.29 μ mol/L

# Reference: patent US20140271716A1, “Intra-testicular Injection of Immunogens” (priority 2013, published 2014)
